# Data taken from paper PMC10870048, “2,4‐Dihydroxybenzoic Acid, a Novel SA Derivative, Controls Plant Immunity via UGT95B17‐Mediated Glucosylation: A Case Study in Camellia Sinensis” (Advanced Science, 2023).
# Test system: T1, UGT95B17
# T1 construct: full-length ORF in pGEX-4T-1 (N-terminal GST tag of vector)
# Assay: UDP-Glo glycosyltransferase assay
# Type: biochemical, Camellia sinensis
# Conditions: UDP-glucose co-substrate, pH 7.5, 25 °C, 40 min; read-out: apparent KM
row,Compound,Km
1,"O=C(O)c1ccc(O)cc1O [2,4-DHBA]",0.81 ± 0.26 µM
2,"O=C(O)c1cccc(O)c1O [2,3-DHBA]",3.31 ± 0.58 µM
3,"O=C(O)c1cc(O)ccc1O [2,5-DHBA]",0.31 ± 0.11 µM
